# ChEMBL document CHEMBL5325393, “A mini-review on synthesis and antiviral activity of natural product oxetanocin A derivatives” (Bioorg Med Chem, 2022)
# What was measured:
# [1] = tested on: Human immunodeficiency virus 1; assay: Antiviral activity against HIV-1 assessed as inhibition of viral replication; format: functional, organism-based
# [2] = tested on: Human immunodeficiency virus 1; assay: Antiviral activity against HIV-1 HTLV-IIIB infected in human MT4 cells assessed as reduction in virus induced cytopathogenicity by immunofluorescence assay; format: functional, organism-based; conditions: Human immunodeficiency virus 1, HTLV-IIIB
# [3] = tested on: Human alphaherpesvirus 1; assay: Antiviral activity against HSV-1 KOS infected in African green monkey Vero cells assessed as reduction in virus induced cytopathogenicity by plaque reduction assay; format: functional, organism-based; conditions: Human alphaherpesvirus 1, KOS
# [4] = tested on: Human alphaherpesvirus 1; assay: Antiviral activity against thymidine kinase positive HSV-1 E-377 infected in HFF cells assessed as reduction in viral replication incubated for 3 days by crystal violet staining based microplate reader analysis; format: functional, organism-based; conditions: Human alphaherpesvirus 1, E-377, HFF, 72 h
# [5] = tested on: Human alphaherpesvirus 2; assay: Antiviral activity against thymidine kinase deficient HSV-2 assessed as inhibition of viral replication by plaque reduction assay; format: functional, organism-based
# [6] = tested on: Human alphaherpesvirus 1; assay: Antiviral activity against thymidine kinase positive HSV-1 SC-16 infected in HFF cells assessed as reduction in viral replication incubated for 3 days by crystal violet staining based microplate reader analysis; format: functional, organism-based; conditions: Human alphaherpesvirus 1, SC-16, HFF, 72 h
# [7] = tested on: Human alphaherpesvirus 2; assay: Antiviral activity against HSV-2 186 infected in African green monkey Vero cells assessed as reduction in virus induced cytopathogenicity by plaque reduction assay; format: functional, organism-based; conditions: Human alphaherpesvirus 2, 186, Vero
# [8] = tested on: Cytomegalovirus; assay: Antiviral activity against CMV AD-169 infected in HEL cells assessed as reduction in virus plaque formation; format: functional, organism-based; conditions: Human betaherpesvirus 5, AD-169, HEL
# [9] = tested on: Human alphaherpesvirus 2; assay: Antiviral activity against HSV-2 assessed as inhibition of viral growth; format: functional, organism-based
# [10] = tested on: Human alphaherpesvirus 1; assay: Antiviral activity against HSV-1 assessed as inhibition of viral growth; format: functional, organism-based
# [11] = tested on: Human alphaherpesvirus 1; assay: Antiviral activity against thymidine kinase positive HSV-1 123 infected in HFF cells assessed as reduction in viral replication incubated for 3 days by crystal violet staining based microplate reader analysis; format: functional, organism-based; conditions: Human alphaherpesvirus 1, 123, HFF, 72 h
# [12] = tested on: Human alphaherpesvirus 1; assay: (§1) Antiviral activity against lethal intracerebral HSV-1 123 infected in po dosed Swiss mouse model assessed as increase in animal survival administered as single double strength loading dose at 7 hrs post-inoculation and single strength dose at 23, 31, 47, 55, 71, 79 hrs post-inoculation and monitored for 21 days; format: functional; conditions: time 21 day
# [13] = tested on: Human alphaherpesvirus 1; assay: as §1, with “systemic” for “intracerebral”; format: functional; conditions: time 21 day
# [14] = tested on: Human immunodeficiency virus; assay: Antiviral activity against HIV infected in human MT4 cells by plaque reduction assay; format: functional, organism-based; conditions: Human immunodeficiency virus 1, MT4
# [15] = tested on: Hepatitis B virus; assay: Antiviral activity against HBV infected in human HepG2.2.15 cells assessed as reduction in virus induced cytopathogenicity by Southern blot analysis; format: functional, organism-based
# [16] = tested on: Human betaherpesvirus 5; assay: Antiviral activity against HCMV AD169 infected in HELF cells by plaque reduction assay; format: functional, organism-based; conditions: Human betaherpesvirus 5, AD169, HELF
# [17] = tested on: Human immunodeficiency virus 1; assay: Antiviral activity against HIV-1 HTLV-IIIB infected in human MT4 cells assessed as inhibition of viral replication incubated for 4 days by immunofluorescence assay; format: functional, organism-based; conditions: Human immunodeficiency virus 1, HTLV-IIIB, MT4, 96 h
# [18] = tested on: HUVEC; assay: Angiogenic activity against HUVEC cells assessed as relative area of tube formation at 100 uM incubated for 10 days by tube formation assay; format: functional, Homo sapiens; conditions: time 10 day
# [19] = tested on: Human immunodeficiency virus 1; assay: Antiviral activity against HIV-1 HTLV-IIIB infected in human MT4 cells assessed as inhibition of viral replication; format: functional, organism-based; conditions: Human immunodeficiency virus 1, HTLV-IIIB
# [20] = tested on: Human betaherpesvirus 5; assay: Antiviral activity against HCMV AD169 infected in HEL cells assessed as reduction in virus induced cytopathogenicity by plaque reduction assay; format: functional, organism-based; conditions: Human betaherpesvirus 5, AD169, HEL
# [21] = tested on: Murid betaherpesvirus 1; assay: Antiviral activity against MCMV Smith infected in MEF cells assessed as reduction in plaque formation by plaque reduction assay; format: functional; conditions: Murid betaherpesvirus 1, Smith, read-out: ED50 (the source's name)
# [22] = tested on: Human immunodeficiency virus 2; assay: Antiviral activity against HIV-2 D194 infected in PBMC assessed as inhibition of viral replication at 45 microM relative to control; format: functional; conditions: Human immunodeficiency virus 2, D194, PBMC
# [23] = tested on: Human immunodeficiency virus 1; assay: Antiviral activity against HIV-1 III B infected in PBMC assessed as inhibition of viral replication at 100 microM relative to control; format: functional; conditions: Human immunodeficiency virus 1, III B
# [24] = Cytotoxicity against human CCD-18Co cells assessed as inhibition of cell growth by colorimetric method; format: toxicity, cell-based
# [25] = tested on: Hepatitis B virus; assay: Antiviral activity against HBV infected in human HB611 cells assessed as inhibition of viral DNA replication incubated for 15 days by SDS-PAGE based autoradiographic analysis; format: functional, organism-based; conditions: HB611, 360 h
# [26] = Cytotoxicity against human Detroit 551 cells assessed as inhibition of cell growth by colorimetric method; format: toxicity, cell-based
# [27] = Cytotoxicity against human HB611 cells assessed as inhibition of cell growth incubated for 48 hrs by colorimetric method; format: functional
# [28] = tested on: Human betaherpesvirus 5; assay: Antiviral activity against HCMV assessed as inhibition of viral growth; format: functional, organism-based
# [29] = tested on: Hepatitis B virus; assay: Antiviral activity against HBV assessed as inhibition of viral growth; format: functional, organism-based
# [30] = tested on: Human immunodeficiency virus; assay: Antiviral activity against HIV assessed as inhibition of viral growth; format: functional, organism-based; conditions: Human immunodeficiency virus 1
# [31] = tested on: MT4; assay: Cytotoxicity against human MT4 cells assessed as inhibition of cell growth; format: functional
# [32] = Cytotoxicity against African green monkey Vero cells assessed as inhibition of cell growth at 132.6 microg/ml relative to control; format: toxicity, cell-based; conditions: chlorocebus sabaeus, at 132.6 µg/mL
# [33] = tested on: Human alphaherpesvirus 2; assay: Antiviral activity against HSV-2 assessed as inhibition of cytopathic effect at 5.8 ug per well relative to control; format: functional
# [34] = tested on: Human immunodeficiency virus; assay: Antiviral activity against HIV RF assessed as inhibition of viral growth; format: functional, organism-based; conditions: Human immunodeficiency virus 1, RF
# [35] = tested on: Human immunodeficiency virus 1; assay: Antiviral activity against HIV-1 III B infected in PBMC assessed as inhibition of viral growth; format: functional, organism-based; conditions: Human immunodeficiency virus 1, III B
# [36] = tested on: Human immunodeficiency virus 2; assay: Antiviral activity against HIV-2 D194 infected in PBMC assessed as inhibition of viral growth; format: functional, organism-based; conditions: Human immunodeficiency virus 2, D194, PBMC
compound,measurement,setting,value
O=c1[nH]cnc2c1ncn2[C@H]1CC[C@@H](CO)O1 [DIDANOSINE],EC50,[1],0.46 µg/mL
same,EC50,[2],0.46 µg/mL
Nc1nc2c(ncn2COCCO)c(=O)[nH]1 [ACYCLOVIR],EC50,[3],0.41 µg/mL
same,EC50,[4],0.2 µM
same,IC50,[5],12 µM
same,EC50,[6],0.2 µM
same,EC50,[7],0.18 µg/mL
same,EC50,[8],40 µg/mL
same,EC50,[9],0.39 µg/mL
same,EC50,[10],0.32 µg/mL
same,EC50,[11],0.2 µM
same,ED50,[12],>500 mg/kg.day
same,ED50,[13],>500 mg/kg.day
O=C(Nc1ncnc2c1ncn2[C@@H]1O[C@H](CO)[C@H]1O)c1ccccc1,IC50,[14],5.5 µg/mL
Nc1ccn([C@@H]2CS[C@H](CO)O2)c(=O)n1 [LAMIVUDINE],EC50,[7],0.39 µg/mL
same,EC50,[15],0.009 µg/mL
O=c1[nH]c(=O)c2ncn([C@@H]3O[C@H](CO)[C@H]3CO)c2[nH]1,IC50,[16],> 50 µM
same,EC50,[17],> 100 µM
CC(C)Oc1nc(N)c2ncn([C@@H]3C[C@H](CO)[C@H]3CO)c2n1,Ratio,[18],1.9
Nc1nc(N)c2ncn([C@@H]3O[C@H](CO)[C@H]3CO)c2n1,IC50,[16],1 µM
same,EC50,[17],2.2 µM
Nc1nc(F)nc2c1ncn2[C@@H]1O[C@H](CO)[C@H]1CO,IC50,[19],0.016 µM
same,IC50,[5],3.9 µM
Nc1nc2c(ncn2COC(CO)CO)c(=O)[nH]1 [GANCICLOVIR],EC50,[20],0.71 µg/mL
same,EC50,[21],1 µg/mL
Nc1nc2c(ncn2[C@H]2C[C@@](F)(CO)C2)c(=O)[nH]1,inhibition at 45 µM,[22],50%
same,inhibition at 100 µM,[23],30%
Nc1nc2c(ncn2[C@@H]2O[C@H](CO)[C@H]2CO)c(=O)[nH]1,IC50,[24],> 300 µM
same,IC50,[25],1.5 µM
same,IC50,[16],1 µM
same,IC50,[26],> 300 µM
same,CC50,[27],> 1000 µM
same,EC50,[17],2.2 µM
Nc1nc(=O)c2ncn([C@@H]3C[C@H](CO)[C@H]3CO)c2[nH]1 [LOBUCAVIR],IC50,[28],0.4 µM
same,IC50,[9],0.08 µM
same,IC50,[29],0.86 µM
same,EC50,[21],0.1 µg/mL
same,IC50,[10],0.047 µM
same,IC50,[30],0.3 µM
O=c1[nH]cnc2c1ncn2[C@@H]1O[C@H](CO)[C@H]1CO,CC50,[31],330 µM
same,IC50,[16],18 µM
same,EC50,[17],2.2 µM
Nc1ncnc2c1ncn2[C@@H]1O[C@H](CO)[C@H]1CO,EC50,[1],1.4 µg/mL
same,inhibition at 132.6 microg/ml,[32],50%
same,IC50,[19],1.7 µM
same,IC50,[28],13 µg/mL
same,inhibition at 5.8 µg/disc,[33],50%
same,IC50,[16],13 µM
same,EC50,[17],1.4 µM
same,IC50,[14],4.3 µg/mL
same,IC50,[34],0.5 µg/mL
Nc1nc(Cl)nc2c1ncn2C1CC2(C1)CC(CO)(CO)C2,Ratio,[18],3.59
Nc1ncnc2c1ncn2[C@H]1C[C@@](F)(CO)C1,IC50,[35],3.9 µM
same,IC50,[36],1.5 µM
Nc1ncnc2c1ncn2[C@@H]1C[C@H](CO)[C@H]1CO,IC50,[28],12 µM
same,IC50,[9],1.6 µM
same,IC50,[29],0.024 µM
same,EC50,[21],0.05 µg/mL
same,IC50,[10],1.6 µM
same,IC50,[30],0.03 µM
